Results: PubChem BioAssay (NCI)
Values joined by “and” are separate entries in the source; they are usually repeats but may differ in a detail not shown here. Equal values may be shown once.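 A five-concentration, 48-hour dose response in 96-well plates underlies each endpoint, interpolated linearly between surrounding concentrations. GI50 marks 50% less growth. TGI denotes the concentration required for complete inhibition of growth.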

What was measured:
Experiment in all cases: DTP human tumour cell line panel, 48 h
[1] = test system: SW-620 colon
[2] = test system: KM12 colon
[3] = test system: SK-OV-3 ovarian
[4] = test system: MALME-3M melanoma
[5] = test system: OVCAR-5 ovarian
[6] = test system: MDA-MB-435
[7] = test system: OVCAR-4 ovarian
[8] = test system: HCC-2998 colon
[9] = test system: UACC-257 melanoma
[10] = test system: MDA-MB-231 breast

SMILES	TGI [1]	TGI [2]	TGI [3]	TGI [4]	TGI [5]	TGI [6]	TGI [7]	TGI [8]	TGI [9]	GI50 [3]	GI50 [10]	TGI [10]	GI50 [4]	GI50 [5]	GI50 [7]	GI50 [8]	GI50 [1]	GI50 [2]	GI50 [9]	GI50 [6]
O=c1c(Cl)c(Cl)cnn1CCCl	3.89 µM	29.7 µM	21.7 µM	7.14 µM	34.5 µM	10.6 µM	3.14 µM	9.39 µM	6.58 µM											
O=C(c1ccc(Cl)cc1)c1ccc(OCCCOc2ccc(C(=O)c3ccc(Cl)cc3)cc2Cl)c(Cl)c1	> 100 µM	> 100 µM	> 100 µM	> 100 µM	> 100 µM		> 100 µM	> 100 µM	> 100 µM											
CN1CCN(C(=O)COc2ccc(/C=C3\CC4C5CC=C6CC(Cl)CCC6(C)C5CCC4(C)C3=O)cc2)CC1 (stereo unspecified)			> 100 µM	> 100 µM	> 100 µM		> 100 µM	> 100 µM		> 100 µM	> 100 µM	> 100 µM	> 100 µM	> 100 µM	> 100 µM	> 100 µM				
O=C1C2C3CC(C4C5C=CC(C5)C34)C2C2C3CC(C12)C1C2C=CC(C2)C31 (stereo unspecified)	49.5 µM	> 100 µM	> 100 µM	> 100 µM	> 100 µM		> 100 µM	> 100 µM	> 100 µM											
Nc1ccccc1C(=O)CCC1C(=O)NC(=S)NC1=O	> 100 µM	> 100 µM	> 100 µM	> 100 µM	> 100 µM		> 100 µM	> 100 µM	> 100 µM											
O=C(/C=C\c1cccc2ccccc12)c1ccc(Cl)cc1Cl	34.2 µM	31 µM	> 100 µM	65.6 µM	72.3 µM		> 100 µM	92 µM	75.3 µM											
CCc1ccc(COC(=O)C2=C(C)NC(C)=C(C(=O)OCc3ccc(CC)cn3)C2C2=COCCO2)nc1	80.4 µM	87.1 µM	45.8 µM		69.3 µM	38.3 µM	66.9 µM	37.7 µM	41.5 µM			45.8 µM								
COC1(OC)C2(Cl)C(Cl)=C(Cl)C1(Cl)C1C2C2CC1(C(=O)O)c1ccccc12 (stereo unspecified)	54.3 µM		91.3 µM	32.1 µM			34.6 µM	50.7 µM	47.4 µM											
COC1OC2COC(C)(C)OC2C(OC(C)=O)C1NC(=O)N(CCCl)N=O (stereo unspecified)	> 100 µM	> 100 µM	> 100 µM	> 100 µM	> 100 µM		> 100 µM	> 100 µM	> 100 µM											
CC(=O)[C@H]1CCC2[C@@H]3CC=C4C[C@@H]([O-])CC[C@]4(C)C3CC[C@@]21C.CC(=O)[C@H]1CCC2[C@@H]3CC=C4C[C@@H]([O-])CC[C@]4(C)C3CC[C@@]21C.CC(=O)[CH-]C(=O)c1ccccc1.CC(=O)[CH-]C(=O)c1ccccc1.Cl.[Ti+4] (stereo partly specified)	> 100 µM	> 100 µM	77.4 µM	37.3 µM	> 100 µM		> 100 µM	85.3 µM	69.7 µM	26.6 µM			16 µM	> 100 µM	62 µM	33.2 µM	39 µM	26.4 µM	16.2 µM	
S=c1ncc2c([nH]1)C1c3ccccc3C2c2ccccc21	> 100 µM	> 100 µM		> 100 µM	> 100 µM		> 100 µM													
Nc1c(Cl)ncnc1NCCCCCCCCCCCCNc1ncnc(Cl)c1N	54 µM	> 100 µM	> 100 µM	> 100 µM	> 100 µM		> 100 µM	56.9 µM	4.21 µM											
CN(/N=C\c1ccnc2ccccc12)c1ccc([N+](=O)[O-])cc1	> 100 µM	> 100 µM	> 100 µM	> 100 µM	> 100 µM			> 100 µM	> 100 µM											
O=[N+]([O-])c1cc([N+](=O)[O-])c(Nn2c3ccccc3c3ccccc32)c([N+](=O)[O-])c1	23.7 µM and 3.56 µM	3.77 µM and 1.7 µM		4.88 µM and 0.733 µM	26.7 µM and 13.5 µM	7.16 µM and 2.27 µM	> 100 µM	12.5 µM and 2.63 µM	1.63 µM				0.236 µM	0.338 µM	0.342 µM	0.44 µM	0.366 µM	0.305 µM	0.312 µM	0.348 µM
CC(=O)[CH-]C(=O)c1ccccc1.CC(=O)[CH-]C(=O)c1ccccc1.CC(=O)[CH-]C(=O)c1ccccc1.[Nd+3].[OH3+]	> 100 µM	> 100 µM	99 µM	94.4 µM	> 100 µM		> 100 µM	> 100 µM	> 100 µM	31.7 µM			27.2 µM	93.1 µM	93.8 µM	85.7 µM	55.2 µM	13.4 µM	52.1 µM	
COc1cc(/C=N/N=C(\N)NO)c(Cl)cc1O	> 100 µM	> 100 µM	> 100 µM	> 100 µM	> 100 µM		> 100 µM	> 100 µM	> 100 µM											
NC1=NN(c2ccccc2)C(=O)C1C(=O)C(=O)Nc1ccc(Cl)c(Cl)c1 (stereo unspecified)	> 100 µM	> 100 µM	> 100 µM	> 100 µM	> 100 µM		> 100 µM	> 100 µM	> 100 µM											
COC(=O)[C@@]12CC(C(C)C)[C@H]3CC(C(=O)C=C1OC)[C@H]32 (stereo partly specified)	> 100 µM	> 100 µM	> 100 µM	> 100 µM	> 100 µM		> 100 µM	> 100 µM	> 100 µM											
C/C=C1/CC(C)C(C)(O)C(=O)OCC2C(O)CN3CCC(OC1=O)C23 (stereo unspecified)	> 100 µM	> 100 µM	> 100 µM		> 100 µM	> 100 µM	> 100 µM	> 100 µM	> 100 µM			> 100 µM								
COc1ccc(OC)c(/C=N/N=C(\N)NO)c1	> 100 µM	> 100 µM	> 100 µM	> 100 µM	> 100 µM		> 100 µM		> 100 µM											
Cc1cc(=O)n(-c2cc3cccccc-3n2)[nH]1	13 µM	91.5 µM	47 µM	9.84 µM	> 100 µM			48.7 µM	48.3 µM											
